Assay results reported in US6946475B1, “Anticancer calcium channel blockers” (University of Virginia Patent Foundation, priority 1999, dated 2005).

Legend:
[1] = system: MDA-361 cells (breast cancer cell); assay: Measurement of cellular proliferation, MDA-361 cells; assay type: cell-based; conditions: MDA-361, 48 hours; read-out: PROLIFERATION IC50 MDA-361
Method: (§1) Measurement of cellular proliferation: LNCaP cells at 2.5×10^4/well or PC3 cells at 5×10^4/well, both in a final volume of 100 μl, were plated in triplicate in standard flat bottom 96 well tissue culture plates in the presence of drug or vehicle (DMSO). Unless otherwise indicated, cells were grown for 48 hours at 37° C. in a CO2 incubator. Relative cell growth was determined with the CellTiter 96 aqueous cell proliferation assay (Promega, Madison, Wis.) as described by the manufacturer using an automated plate reader. Results were calculated in a blinded fashion and are means of triplicate determinations.
(§2) For the 48 hour proliferation, cells were cultured with calcium channel antagonists or without calcium channel antagonists. The IC50 values of the calcium channel antagonists were determined.
(§3) Using the measurement cell proliferation assay described hereinabove, the cell lines Jurkat, LNCap (prostate cancer cell), PC-31 (prostate cancer cell), DU145 (prostate cancer cell), MDA-468 (breast cancer cell), MDA-36 (Breast cancer cell), MCF-7 (breast cancer cell), MIA PaCa-2 (pancreatic cancer cell), Hep G2 (liver cancer cell), A549 (non-small cell lung cancer cells), NCI H460 (non-small cell lung cancer cells), HT-29 (colon cancer cell), HCT-116 (colon cancer cell) and SK OV-3 (ovarian cancer cell) were cultured in the presence of TH-1177, TH-1205, TH-1201, TH-2109, TH-2029, TH-2043, TN-2085 and TH-2279.

[2] = biological target: T1, α1G subunit of a calcium channel (Homo sapiens, UniProt O43497); assay: Whole cell current recording, Xenopus oocytes transfected with α1G subunit; assay type: cell-based
T1 construct: expressed in transfected cells
T1 sequence (O43497 1-2171 isoform O43497-5): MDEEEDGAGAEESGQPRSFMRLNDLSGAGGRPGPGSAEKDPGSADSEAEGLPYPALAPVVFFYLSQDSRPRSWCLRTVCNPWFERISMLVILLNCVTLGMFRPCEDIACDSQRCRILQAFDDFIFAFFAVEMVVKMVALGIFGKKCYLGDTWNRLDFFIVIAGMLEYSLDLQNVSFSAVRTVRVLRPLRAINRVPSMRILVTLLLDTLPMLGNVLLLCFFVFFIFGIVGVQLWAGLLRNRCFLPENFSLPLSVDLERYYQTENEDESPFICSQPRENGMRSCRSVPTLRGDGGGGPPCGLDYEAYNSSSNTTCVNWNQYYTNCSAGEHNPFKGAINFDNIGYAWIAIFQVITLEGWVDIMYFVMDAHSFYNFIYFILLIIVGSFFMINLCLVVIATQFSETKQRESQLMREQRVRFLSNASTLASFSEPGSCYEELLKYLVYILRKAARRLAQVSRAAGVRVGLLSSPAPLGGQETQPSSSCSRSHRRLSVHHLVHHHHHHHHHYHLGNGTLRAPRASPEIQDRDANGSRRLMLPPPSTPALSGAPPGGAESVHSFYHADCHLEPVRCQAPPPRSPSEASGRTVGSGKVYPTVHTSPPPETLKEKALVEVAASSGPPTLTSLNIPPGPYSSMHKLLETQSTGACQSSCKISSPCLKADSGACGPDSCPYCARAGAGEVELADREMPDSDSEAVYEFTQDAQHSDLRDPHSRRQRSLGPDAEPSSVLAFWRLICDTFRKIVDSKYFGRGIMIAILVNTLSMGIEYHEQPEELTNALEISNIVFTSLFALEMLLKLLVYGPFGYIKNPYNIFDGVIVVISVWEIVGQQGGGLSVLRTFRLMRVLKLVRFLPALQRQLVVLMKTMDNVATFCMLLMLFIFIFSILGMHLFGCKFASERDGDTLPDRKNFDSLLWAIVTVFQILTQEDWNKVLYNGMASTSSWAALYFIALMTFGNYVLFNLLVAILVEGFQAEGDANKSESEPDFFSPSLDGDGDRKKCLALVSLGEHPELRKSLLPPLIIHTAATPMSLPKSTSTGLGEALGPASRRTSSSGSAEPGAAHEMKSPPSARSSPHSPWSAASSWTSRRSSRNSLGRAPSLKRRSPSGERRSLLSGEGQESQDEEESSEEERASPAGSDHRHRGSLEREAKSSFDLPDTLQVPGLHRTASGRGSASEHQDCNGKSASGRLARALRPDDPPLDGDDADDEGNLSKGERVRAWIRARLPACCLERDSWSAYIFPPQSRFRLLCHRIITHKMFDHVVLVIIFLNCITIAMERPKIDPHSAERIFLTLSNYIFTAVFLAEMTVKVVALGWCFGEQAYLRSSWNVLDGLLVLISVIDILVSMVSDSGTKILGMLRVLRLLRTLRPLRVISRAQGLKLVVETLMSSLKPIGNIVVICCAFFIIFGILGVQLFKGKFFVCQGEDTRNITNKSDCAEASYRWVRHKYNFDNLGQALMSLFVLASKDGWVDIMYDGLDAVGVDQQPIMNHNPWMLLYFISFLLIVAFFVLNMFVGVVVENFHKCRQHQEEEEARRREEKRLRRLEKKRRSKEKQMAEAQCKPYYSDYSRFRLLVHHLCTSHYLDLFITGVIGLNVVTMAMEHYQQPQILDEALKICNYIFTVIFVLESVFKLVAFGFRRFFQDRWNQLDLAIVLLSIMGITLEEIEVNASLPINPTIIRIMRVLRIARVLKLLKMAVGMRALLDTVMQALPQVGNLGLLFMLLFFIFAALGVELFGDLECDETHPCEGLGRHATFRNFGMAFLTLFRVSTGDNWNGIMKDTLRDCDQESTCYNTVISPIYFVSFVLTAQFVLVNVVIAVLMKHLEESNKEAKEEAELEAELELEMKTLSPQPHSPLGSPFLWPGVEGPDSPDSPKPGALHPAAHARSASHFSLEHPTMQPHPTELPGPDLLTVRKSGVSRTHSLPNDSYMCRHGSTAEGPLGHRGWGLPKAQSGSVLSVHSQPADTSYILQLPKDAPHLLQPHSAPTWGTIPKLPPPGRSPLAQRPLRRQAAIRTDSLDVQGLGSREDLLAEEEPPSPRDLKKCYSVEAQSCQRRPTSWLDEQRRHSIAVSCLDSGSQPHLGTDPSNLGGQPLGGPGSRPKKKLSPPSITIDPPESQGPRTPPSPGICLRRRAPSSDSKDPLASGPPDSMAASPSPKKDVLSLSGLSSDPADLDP
Method: The procedure of Example 9 was repeated except the cells were transfected with 2 μg of α1G subunit prepared in accordance with the procedure described in Cribbs, et al., FEBS Letters, 66, 54-58 (2000). Here the cells were depolarized using the depolarizing medium of Example 9. When the current reached the maximum level, then 10 μm pH 1177 was added to the medium and the change in current was observed. The current was measured at about zero pA. When the current remained constant, the TH-1177 was washed out, in accordance with the procedure in Example 9 and the change in the current value was again recorded.

[3] = system: A549 (non-small cell lung cancer cells); assay: Measurement of cellular proliferation, A549 cells; assay type: cell-based; conditions: A549, 48 hours
Method: as §1, §2, §3

[4] = system: DU145 (prostate cancer cell); assay: Measurement of cellular proliferation, DU145 cells; assay type: cell-based; conditions: DU 145, 48 hours
Method: as §1, §2, §3

PC3 cells = assay: Survival of SCID mice inoculated with PC3 cells; assay type: in vivo
Method: Animal Studies: All protocols were approved by the Animal Care Committee of the University of Virginia. SCID mice were housed in a barrier isolation facility of the University of Virginia Department of Comparative Medicine and all personnel observed sterile techniques when entering the facility and handling animals. TH-1177 was dissolved in ethanol and diluted 10-fold in sterile phosphate buffered saline (PBS) immediately prior to each day's injection. Injection volumes of 0.5 ml per animal were used. Vehicle consisted of PBS diluted ethanol. PC3 cells for injection were prepared by washing in sterile PBS three times prior to suspension to 2×10^6 per ml. Each animal received a daily IP injection of vehicle or drug beginning on day 1.
Statistical methods: In vivo survival data were analyzed with Prism 2.01 (GraphPad Software, San Diego, Calif.). The results of the Kaplan-Meier analysis are presented as one-tailed probabilities because there was no reasonable expectation that drug treatment would cause the mice to succumb more rapidly to the implanted cancer than would control animals.
TH-1177 slowed prostate cancer progression in vivo. […] One day later, daily IP injections of TH-1177 or vehicle alone were begun. TH1177 was administered at doses or either 3 mg/kg or 10 mg/kg. […]

IC50 [1]: 26 µM
Current in depolarized α1G-transfected cells ([2]; 10 μm added at maximum current): about zero
Ability of calcium to cross the cell membrane ([2]; α1G-transfected Xenopus oocytes, restored on washout): completely inhibits
IC50 [3]: 71 µM
IC50 [4]: 19 µM
Compound: COc1ccc(CCN2CCC[C@H]2COC(c2ccccc2)c2ccc(Cl)cc2)cc1 (stereo partly shown) [TH-1177]
Life span increase (PC3 cells; 3 mg/kg/d daily IP, p=0.047): 34%
Life span increase (PC3 cells; 10 mg/kg/d daily IP, p=0.0044): 38%
